Source: paper doi:10.1101/2025.01.02.631061v1 (biorxiv, 2025)
Like-named read-outs stand apart in the source and are kept apart here.

Key:
[1] = test system: UnBGl1; settings: optimum pH 6.5, 55 °C, 10 min
[2] = test system: UnBGl1; settings: pH 6.0, 55 °C, 10 min
[3] = test system: UnBGl1; test: pNP release, absorbance […] nm, Michaelis-Menten; format: biochemical, soil metagenome; settings: pH 6.0, 55 °C, 10 min
[4] = test system: UnBGl1; settings: optimum pH 5.5, 50 °C, 30 min
[5] = test system: UnBGl1; settings: pH 6.0, 50 °C, 30 min

| SMILES | Km [1] | Km [2] | Km [3] | Km [4] | Km [5] |
| --- | --- | --- | --- | --- | --- |
| O=[N+]([O-])c1ccc(O[C@@H]2O[C@H](CO)[C@@H](O)[C@H](O)[C@H]2O)cc1 [4-nitrophenyl β-D-glucopyranoside] | 0.65 ± 0.04 mM | 7.35 ± 3 mM | 0.92 ± 0.05 mM |  |  |
| OC[C@H]1O[C@@H](O[C@H]2[C@H](O)[C@@H](O)C(O)O[C@@H]2CO)[C@H](O)[C@@H](O)[C@@H]1O (some centres unmarked) [cellobiose] |  |  |  | 22.9 ± 1.1 mM | 34.6 ± 2.4 mM |
